± gives the expanded uncertainty stated by the source.
Assay: wn = mass fraction of the nth substance listed
Details: Fluid (supercritical or subcritical phases), isochoric method, w1 = 0.5001

FC(F)C(F)(F)F [pentafluoroethane] + FCF
Details	mass density [kg/m3]
301 K, 4414 kPa	1071.2 ± 2.2
302 K, 4977 kPa	1071 ± 2.2
303 K, 5537 kPa	1070.9 ± 2.2
303 K, 5540 kPa	1070.9 ± 2.2
304 K, 6101 kPa	1070.8 ± 2.2
304 K, 6103 kPa	1070.8 ± 2.2
305 K, 6663 kPa	1070.6 ± 2.2
306 K, 7227 kPa	1070.5 ± 2.2
306 K, 7228 kPa	1070.5 ± 2.2
307 K, 7791 kPa	1070.4 ± 2.2
307 K, 7792 kPa	1070.4 ± 2.2
308 K, 8356 kPa	1070.2 ± 2.2
308 K, 8357 kPa	1070.2 ± 2.2
309 K, 8918 kPa	1070.1 ± 2.2
310 K, 9482 kPa	1070 ± 2.2
310 K, 9484 kPa	1070 ± 2.2
311 K, 10048 kPa	1069.8 ± 2.2
311 K, 10049 kPa	1069.8 ± 2.2
312 K, 10614 kPa	1069.7 ± 2.2
312 K, 10615 kPa	1069.7 ± 2.2
313 K, 11178 kPa	1069.6 ± 2.2
313 K, 11179 kPa	1069.6 ± 2.2
314 K, 11741 kPa	1069.4 ± 2.2
314 K, 11743 kPa	1069.4 ± 2.2
315 K, 12309 kPa	1069.3 ± 2.2
316 K, 12875 kPa	1069.2 ± 2.2
316 K, 12877 kPa	1069.2 ± 2.2
317 K, 13440 kPa	1069 ± 2.2
318 K, 14003 kPa	1068.9 ± 2.2
318 K, 14005 kPa	1068.9 ± 2.2
319 K, 14570 kPa	1068.8 ± 2.2
319 K, 14571 kPa	1068.8 ± 2.2
320 K, 15135 kPa	1068.6 ± 2.2
320 K, 15137 kPa	1068.6 ± 2.2
321 K, 15700 kPa	1068.5 ± 2.2
321 K, 15701 kPa	1068.5 ± 2.2
322 K, 16263 kPa	1068.4 ± 2.2
322 K, 16265 kPa	1068.4 ± 2.2
323 K, 16830 kPa	1068.2 ± 2.2
324 K, 17394 kPa	1068.1 ± 2.2
324 K, 17396 kPa	1068.1 ± 2.2
325 K, 5448 kPa	946.2 ± 2
325 K, 17959 kPa	1068 ± 2.2
325 K, 17961 kPa	1068 ± 2.2
326 K, 5835 kPa	946.1 ± 1.9
326 K, 5836 kPa	946.1 ± 1.9
326 K, 18524 kPa	1067.8 ± 2.2
326 K, 18525 kPa	1067.8 ± 2.2
327 K, 6224 kPa	946 ± 1.9
327 K, 6225 kPa	946 ± 1.9
327 K, 19088 kPa	1067.7 ± 2.2
327 K, 19090 kPa	1067.7 ± 2.2
328 K, 6615 kPa	945.9 ± 1.9
328 K, 6616 kPa	945.9 ± 1.9
328 K, 19652 kPa	1067.6 ± 2.2
328 K, 19655 kPa	1067.6 ± 2.2
329 K, 7006 kPa	945.8 ± 1.9
329 K, 7007 kPa	945.8 ± 1.9
330 K, 7397 kPa	945.7 ± 1.9
330 K, 7399 kPa	945.7 ± 1.9
331 K, 7788 kPa	945.6 ± 1.9
331 K, 7790 kPa	945.6 ± 1.9
332 K, 8183 kPa	945.5 ± 1.9
332 K, 8184 kPa	945.5 ± 1.9
333 K, 8579 kPa	945.4 ± 1.9
334 K, 8970 kPa	945.4 ± 1.9
334 K, 8971 kPa	945.4 ± 1.9
335 K, 9364 kPa	945.3 ± 1.9
336 K, 9759 kPa	945.2 ± 1.9
337 K, 10156 kPa	945.1 ± 1.9
337 K, 10157 kPa	945.1 ± 1.9
338 K, 6179 kPa	859.9 ± 1.8
338 K, 10552 kPa	945 ± 1.9
338 K, 10553 kPa	945 ± 1.9
339 K, 6478 kPa	859.9 ± 1.8
339 K, 10948 kPa	944.9 ± 1.9
340 K, 6782 kPa	859.8 ± 1.8
340 K, 11344 kPa	944.8 ± 1.9
340 K, 11346 kPa	944.8 ± 1.9
341 K, 7089 kPa	859.7 ± 1.7
341 K, 11743 kPa	944.7 ± 1.9
341 K, 11745 kPa	944.7 ± 1.9
342 K, 7389 kPa	859.6 ± 1.8
342 K, 12139 kPa	944.6 ± 1.9
342 K, 12142 kPa	944.6 ± 1.9
343 K, 7693 kPa	859.6 ± 1.8
343 K, 12536 kPa	944.5 ± 1.9
343 K, 12538 kPa	944.5 ± 1.9
344 K, 7998 kPa	859.5 ± 1.7
344 K, 12935 kPa	944.4 ± 1.9
344 K, 12936 kPa	944.4 ± 1.9
345 K, 8306 kPa	859.4 ± 1.7
345 K, 13334 kPa	944.3 ± 1.9
346 K, 8612 kPa	859.3 ± 1.7
346 K, 13733 kPa	944.2 ± 1.9
347 K, 6281 kPa	761.1 ± 1.6
347 K, 8917 kPa	859.3 ± 1.7
347 K, 14131 kPa	944.1 ± 1.9
348 K, 6505 kPa	761.1 ± 1.7
348 K, 9225 kPa	859.2 ± 1.7
348 K, 14528 kPa	944 ± 1.9
349 K, 5380 kPa	475.9 ± 2.4
349 K, 6732 kPa	761 ± 1.6
349 K, 9535 kPa	859.1 ± 1.7
349 K, 14929 kPa	943.9 ± 1.9
350 K, 5486 kPa	475.9 ± 3.4
350 K, 5543 kPa	525.9 ± 2.6
350 K, 5720 kPa	615 ± 2.5
350 K, 6957 kPa	761 ± 1.6
350 K, 9844 kPa	859 ± 1.7
350 K, 15331 kPa	943.8 ± 1.9
351 K, 5591 kPa	475.9 ± 3.1
351 K, 5661 kPa	525.9 ± 2.3
351 K, 5866 kPa	615 ± 2.1
351 K, 7184 kPa	760.9 ± 1.6
351 K, 10153 kPa	859 ± 1.7
351 K, 15729 kPa	943.7 ± 1.9
352 K, 5697 kPa	475.9 ± 2.7
352 K, 5778 kPa	525.9 ± 2.3
352 K, 5877 kPa	571.5 ± 2
352 K, 6013 kPa	615 ± 1.9
352 K, 7411 kPa	760.8 ± 1.6
352 K, 10462 kPa	858.9 ± 1.7
352 K, 16128 kPa	943.6 ± 1.9
353 K, 5802 kPa	475.9 ± 2.3
353 K, 5898 kPa	525.9 ± 2.2
353 K, 6010 kPa	571.5 ± 1.9
353 K, 6163 kPa	615 ± 1.8
353 K, 7640 kPa	760.8 ± 1.6
353 K, 10771 kPa	858.8 ± 1.7
353 K, 16529 kPa	943.5 ± 1.9
354 K, 5907 kPa	475.9 ± 2.1
354 K, 6017 kPa	525.8 ± 2
354 K, 6144 kPa	571.4 ± 1.8
354 K, 6312 kPa	614.9 ± 1.7
354 K, 7867 kPa	760.7 ± 1.6
354 K, 11082 kPa	858.7 ± 1.7
354 K, 16929 kPa	943.4 ± 1.9
355 K, 6013 kPa	475.9 ± 1.9
355 K, 6136 kPa	525.8 ± 1.8
355 K, 6277 kPa	571.4 ± 1.7
355 K, 6460 kPa	614.9 ± 1.6
355 K, 8099 kPa	760.7 ± 1.6
355 K, 11393 kPa	858.7 ± 1.7
355 K, 17330 kPa	943.3 ± 1.9
356 K, 6119 kPa	475.9 ± 1.8
356 K, 6256 kPa	525.8 ± 1.8
356 K, 6409 kPa	571.4 ± 1.6
356 K, 6610 kPa	614.9 ± 1.4
356 K, 8331 kPa	760.6 ± 1.6
356 K, 11703 kPa	858.6 ± 1.7
356 K, 17728 kPa	943.3 ± 1.9
357 K, 6227 kPa	475.9 ± 1.7
357 K, 6375 kPa	525.8 ± 1.7
357 K, 6544 kPa	571.4 ± 1.5
357 K, 6762 kPa	614.8 ± 1.4
357 K, 8563 kPa	760.6 ± 1.6
357 K, 12015 kPa	858.5 ± 1.7
357 K, 18129 kPa	943.2 ± 1.9
358 K, 6332 kPa	475.9 ± 1.6
358 K, 6496 kPa	525.8 ± 1.5
358 K, 6679 kPa	571.3 ± 1.5
358 K, 6913 kPa	614.8 ± 1.4
358 K, 8795 kPa	760.5 ± 1.6
358 K, 12328 kPa	858.4 ± 1.7
358 K, 18529 kPa	943.1 ± 1.9
359 K, 6438 kPa	475.9 ± 1.5
359 K, 6616 kPa	525.8 ± 1.5
359 K, 6814 kPa	571.3 ± 1.5
359 K, 7064 kPa	614.8 ± 1.5
359 K, 9028 kPa	760.4 ± 1.6
359 K, 12639 kPa	858.4 ± 1.7
359 K, 18928 kPa	943 ± 1.9
360 K, 6544 kPa	475.9 ± 1.4
360 K, 6737 kPa	525.8 ± 1.4
360 K, 6948 kPa	571.3 ± 1.4
360 K, 7219 kPa	614.7 ± 1.4
360 K, 9258 kPa	760.4 ± 1.6
360 K, 12952 kPa	858.3 ± 1.7
361 K, 6650 kPa	475.8 ± 1.4
361 K, 6858 kPa	525.7 ± 1.4
361 K, 7085 kPa	571.3 ± 1.4
361 K, 7368 kPa	614.7 ± 1.4
361 K, 9493 kPa	760.3 ± 1.6
361 K, 13265 kPa	858.2 ± 1.7
362 K, 6758 kPa	475.8 ± 1.3
362 K, 6980 kPa	525.7 ± 1.4
362 K, 7222 kPa	571.2 ± 1.4
362 K, 7523 kPa	614.7 ± 1.4
362 K, 9726 kPa	760.3 ± 1.6
362 K, 13581 kPa	858.1 ± 1.7
363 K, 6864 kPa	475.8 ± 1.3
363 K, 7101 kPa	525.7 ± 1.3
363 K, 7357 kPa	571.2 ± 1.4
363 K, 7676 kPa	614.6 ± 1.4
363 K, 9958 kPa	760.2 ± 1.6
